Measurements as given in paper PMC7488288, “Understanding and Improving the Membrane Permeability of VH032-Based PROTACs” (ACS Medicinal Chemistry Letters, 2020).
Where two headings read alike, the source gives them in different places.

Legend:
VHL protein = tested on: VHL protein; design: method as in PMID 28288108, PMID 30721025; settings: cited from earlier work
in vitro = settings: PAMPA
VHL = molecular target: T1, VHL (Homo sapiens, UniProt P40337); assay: Fluorescence polarization (FP) competitive binding assay; settings: 15 nM VCB protein, 10 nM FAM-labeled HIF-1α peptide JC9, read-out: Kd (FP-derived)
T1 construct: each well solution containing 15 nM VCB

[1] = for LPE: LPE = LogD(dec/w) – 1.06(ALogP) + 5.47
HL60 [2] = tested on: HL60; design: method as in Chan et al. 2018 (ref1); settings: cell proliferation, 48 h treatment; ref Chan et al. 2018 (ref1); cited from earlier work
MV4;11 [3] = settings: cited from earlier work; for pEC50 (MV4;11): cell proliferation, 48 h treatment, ref Chan et al. 2018 (ref1)
MV4;11 [4] = assay: Cell proliferation assay, MV4;11; type: cell-based; settings: Homo sapiens, 48 h treatment, read-out: pEC50 (MV4;11) (converted)
Description: (§1) IX. Cell proliferation assay
(§2) Cell proliferation data were collected as described in Chan et al. 2018 pg. 511 titled “Cell

HL60 [5] = assay: Cell proliferation assay, HL60; type: cell-based; settings: for EC50: Homo sapiens, HL-60, 48 h treatment, read-out: pEC50 (HL60) (converted); for pEC50 (HL60): 48 h treatment
Description: as §1, §2

VHL E3 ubiquitin ligase = tested on: VHL E3 ubiquitin ligase; design: method as in PMID 29018234; settings: cited from earlier work

CC(=O)N[C@H](C(=O)N1C[C@H](O)C[C@H]1C(=O)NCc1ccc(-c2scnc2C)cc1)C(C)(C)SCCCCCCNC(=O)C[C@@H]1N=C(c2ccc(Cl)cc2)c2c(sc(C)c2C)-n2c(C)nnc21 [AT1]
fold lower binding affinity for the VHL protein compared to 8 (VHL protein): 5 fold

Cc1sc2c(c1C)C(c1ccc(Cl)cc1)=N[C@@H](CC(=O)OC(C)(C)C)c1nnc(C)n1-2 [Compound 1, reference compound]
Papp (in vitro; pH 7.4, PAMPA permeability (Pe)): ≥ 5 ×10⁻⁶ cm/s

Cc1ncsc1-c1ccc(CNC(=O)[C@@H]2C[C@@H](O)CN2C(=O)[C@@H](OC(=O)Cc2ccccc2)C(C)(C)C)cc1 [Compound 3]
Kd (VHL): 800 nM

Cc1ncsc1-c1ccc(CNC(=O)[C@@H]2C[C@@H](O)CN2C(=O)[C@@H](NC(=O)Cc2ccccc2)C(C)(C)C)cc1 [Compound 4]
LPE [1]: 2.0
Papp (in vitro; pH 7.4): ≥ 5 ×10⁻⁶ cm/s
Papp at 7 h (in vitro; pH 7.4): 8.6 ×10⁻⁶ cm/s

Cc1ncsc1-c1ccc(CNC(=O)[C@@H]2C[C@@H](O)CN2C(=O)[C@@H](OC(=O)CCOCCOCCOCCNC(=O)Cc2ccccc2)C(C)(C)C)cc1 [Compound 5]
ΔLPE (lower than 3) ([1]; comparator compound 3): 0.8
Papp at 7 h (in vitro; pH 7.4): 0.3 ± 0.1 ×10⁻⁶ cm/s
fold more permeable than 6 (PAMPA) (pH 7.4): 1.5 fold

Cc1ncsc1-c1ccc(CNC(=O)[C@@H]2C[C@@H](O)CN2C(=O)[C@@H](NC(=O)CCOCCOCCOCCNC(=O)Cc2ccccc2)C(C)(C)C)cc1 [Compound 6]
ΔLPE (lower than 4) ([1]; comparator compound 4): 0.4
Papp at 7 h (in vitro; pH 7.4): 0.2 ± 0.03 ×10⁻⁶ cm/s

Cc1ncsc1-c1ccc(CNC(=O)[C@@H]2C[C@@H](O)CN2C(=O)[C@@H](NC(=O)COCCOCCNC(=O)C[C@@H]2N=C(c3ccc(Cl)cc3)c3c(sc(C)c3C)-n3c(C)nnc32)C(C)(C)C)cc1 [Compound 7]
pEC50 (HL60) (HL60 [2]): 5.84
LPE [1]: 0.4
Papp (in vitro; pH 7.4): > 0.6 ×10⁻⁶ cm/s
Papp at 15 h (in vitro; pH 7.4): 0.6 ×10⁻⁶ cm/s
pEC50 (MV4;11) (MV4;11 [3]): 6.75
fold more permeable than 8 (PAMPA) (pH 7.4): 20 fold
fold more permeable than 9 (PAMPA) (pH 7.4): 100 fold
fold more permeable than 15 (PAMPA) (pH 7.4): 120 fold
fold more permeable than 17 and 14 (PAMPA) (pH 7.4): 300 fold

Cc1ncsc1-c1ccc(CNC(=O)[C@@H]2C[C@@H](O)CN2C(=O)[C@@H](NC(=O)COCCOCCOCCNC(=O)C[C@@H]2N=C(c3ccc(Cl)cc3)c3c(sc(C)c3C)-n3c(C)nnc32)C(C)(C)C)cc1 [Compound 8]
pEC50 (HL60) (HL60 [2]): 6.8
Papp (in vitro; pH 7.4): > 0.6 ×10⁻⁶ cm/s
Papp at 15 h (in vitro; pH 7.4): 0.03 ± 0.01 ×10⁻⁶ cm/s
activity relative to 7 (cellular antiproliferation) (MV4;11 [3]; SI Table 2, MV4;11 and HL60): one log unit
pEC50 (MV4;11) (MV4;11 [3]): 7.57
fold difference in permeability vs 16 (PAMPA) (pH 7.4): 10 fold
fold less permeable than 7 (PAMPA) (pH 7.4): 20 fold

Cc1ncsc1-c1ccc(CNC(=O)[C@@H]2C[C@@H](O)CN2C(=O)[C@@H](NC(=O)[C@H](Cc2ccccc2)NC(=O)COCCOCCOCCNC(=O)C[C@@H]2N=C(c3ccc(Cl)cc3)c3c(sc(C)c3C)-n3c(C)nnc32)C(C)(C)C)cc1 [Compound 9]
EC50 (MV4;11 [4]): 457 nM
LPE [1]: -1.1
decrease in LPE vs 8 ([1]; addition of a Phe residue to 8): 1.2 unit
Papp at 15 h (in vitro; pH 7.4): 0.006 ×10⁻⁶ cm/s
fold decrease in permeability vs 8 (PAMPA) (pH 7.4): 5 fold
EC50 (HL60 [5]): 4170 nM

CC(=O)N1c2ccc(-c3ccc(C(=O)NCCOCCOCC(=O)N[C@H](C(=O)N4C[C@H](O)C[C@H]4C(=O)NCc4ccc(-c5scnc5C)cc4)C(C)(C)C)cc3)cc2[C@H](Nc2ccc(Cl)cc2)C[C@@H]1C [Compound 10]
pEC50 (HL60) (HL60 [2]): 6.17
LPE [1]: -0.1
Papp at 15 h (in vitro; pH 7.4): 0.3 ± 0.1 ×10⁻⁶ cm/s
pEC50 (MV4;11) (MV4;11 [3]): 6.24
fold difference in permeability vs 11 (PAMPA) (pH 7.4): 2 fold

CC(=O)N1c2ccc(-c3ccc(C(=O)NCCOCCOCCOCCOCC(=O)N[C@H](C(=O)N4C[C@H](O)C[C@H]4C(=O)NCc4ccc(-c5scnc5C)cc4)C(C)(C)C)cc3)cc2[C@H](Nc2ccc(Cl)cc2)C[C@@H]1C [Compound 11]
pEC50 (HL60) (HL60 [2]): 6.37
LPE [1]: 0.2
Papp at 15 h (in vitro; pH 7.4): 0.16 ± 0.14 ×10⁻⁶ cm/s
pEC50 (MV4;11) (MV4;11 [3]): 7.08

Cc1ncsc1-c1ccc(CNC(=O)[C@@H]2C[C@@H](O)CN2C(=O)[C@@H](NC(=O)COCCOCCOCCOCC(=O)N[C@H](C(=O)N2C[C@H](O)C[C@H]2C(=O)NCc2ccc(-c3scnc3C)cc2)C(C)(C)C)C(C)(C)C)cc1 [Compound 12]
LPE ([1]; listed as CM9 (12)): 0.8
Papp (in vitro; pH 7.4): 0.009 ×10⁻⁶ cm/s

Cc1ncsc1-c1ccc(CNC(=O)[C@@H]2C[C@@H](O)CN2C(=O)[C@@H](NC(=O)COCCOCCOCCOCCOCCOCC(=O)N[C@H](C(=O)N2C[C@H](O)C[C@H]2C(=O)NCc2ccc(-c3scnc3C)cc2)C(C)(C)C)C(C)(C)C)cc1 [Compound 13]
activity relative to 12 (cellular protein degradation assay) (VHL E3 ubiquitin ligase): two log units
LPE ([1]; listed as CM11 (13)): 0.6
Papp (in vitro; pH 7.4): 0.005 ×10⁻⁶ cm/s
permeability relative to 12 (PAMPA): reduced by half

Cc1ncsc1-c1ccc(CNC(=O)[C@@H]2C[C@H](O)CN2C(=O)[C@@H](NC(=O)COCCOCCOCCOCCOCCOCC(=O)N[C@H](C(=O)N2C[C@@H](O)C[C@H]2C(=O)NCc2ccc(-c3scnc3C)cc2)C(C)(C)C)C(C)(C)C)cc1 [Compound 14]
LPE ([1]; listed as CMP98 (14)): 1.7
Papp at 15 h (in vitro; pH 7.4): 0.002 ± 0.0002 ×10⁻⁶ cm/s

CC(=O)N[C@H](C(=O)N1C[C@H](O)C[C@H]1C(=O)NCc1ccc(-c2scnc2C)cc1)C(C)(C)SCCOCCNC(=O)C[C@@H]1N=C(c2ccc(Cl)cc2)c2c(sc(C)c2C)-n2c(C)nnc21 [Compound 15]
EC50 (MV4;11 [4]): 7240 nM
LPE [1]: −2.3
Papp at 15 h (in vitro; pH 7.4): 0.005 ± 0.003 ×10⁻⁶ cm/s
EC50 (HL60 [5]): 12600 nM

CC(=O)N[C@H](C(=O)N1C[C@H](O)C[C@H]1C(=O)NCc1ccc(-c2scnc2C)cc1)C(C)(C)SCCOCCOCCNC(=O)C[C@@H]1N=C(c2ccc(Cl)cc2)c2c(sc(C)c2C)-n2c(C)nnc21 [Compound 16]
EC50 (MV4;11 [4]): 692 nM
LPE [1]: −2.6
Papp at 15 h (in vitro; pH 7.4): 0.003 ×10⁻⁶ cm/s
permeability relative to 15 (PAMPA): reduced by half
PAMPA permeability (Pe) (pH 7.4): 0.003 ± 8.4x10-5
pEC50 (HL60) (HL60 [5]): BLQ

CC(=O)N[C@H](C(=O)N1C[C@H](O)C[C@H]1C(=O)NCc1ccc(-c2scnc2C)cc1)C(C)(C)SCCCCNC(=O)C[C@@H]1N=C(c2ccc(Cl)cc2)c2c(sc(C)c2C)-n2c(C)nnc21 [Compound 17]
EC50 (MV4;11 [4]): 617 nM
LPE [1]: -3.1
LPE lower than 15 (ΔLPE) ([1]; alkyl-linked 17 vs PEG counterpart 15): 0.8
Papp at 15 h (in vitro; pH 7.4): 0.002 ×10⁻⁶ cm/s
fold less permeable than 15 (PAMPA) (pH 7.4): 2.5 fold
pEC50 (HL60) (HL60 [5]): BLQ
